Where “and” joins values, the source holds several entries; their conditions need not be identical. Identical values can stand only once.
Molecular target: T1, PfCRT^Dd2 (Plasmodium falciparum, UniProt Q8IBZ9, A220S/I356T/K76T/M74I/N326S/N75E/Q271E/R371I)
T1 sequence (Q8IBZ9 1-424 M74I/N75E/K76T/A220S/Q271E/N326S/I356T/R371I): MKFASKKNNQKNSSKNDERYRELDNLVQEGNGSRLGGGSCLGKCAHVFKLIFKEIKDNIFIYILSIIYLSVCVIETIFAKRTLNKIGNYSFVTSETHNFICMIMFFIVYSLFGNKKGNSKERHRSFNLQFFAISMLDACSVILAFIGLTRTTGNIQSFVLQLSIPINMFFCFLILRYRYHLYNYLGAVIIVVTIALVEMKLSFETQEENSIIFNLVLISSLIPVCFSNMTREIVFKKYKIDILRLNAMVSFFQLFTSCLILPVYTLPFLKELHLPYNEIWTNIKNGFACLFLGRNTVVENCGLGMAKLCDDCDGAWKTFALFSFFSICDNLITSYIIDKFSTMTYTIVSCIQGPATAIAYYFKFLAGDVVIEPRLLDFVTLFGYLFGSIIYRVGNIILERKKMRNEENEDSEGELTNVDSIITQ
Assay: Competition kinetics of drug transport (radiolabeled substrate plus cold inhibitor), PfCRT^Dd2-expressing oocytes
Format: cell-based
Design: expressed in transfected cells; host or cells: Xenopus laevis oocytes injected with in vitro transcribed RNA (pSP64T)
Conditions: single replicates
Experimental: The experimental procedure and the data analysis were as described above.
The difference between the two models lies in the value of α, a parameter describing how much the affinity for the substrate changes when the inhibitor is already bound, and vice versa. […] The resulting Vmax,app values and the Vmax,app/KM,app ratios were plotted as a function of the inhibitor concentration (Fig 5A).
Drug transport assays were performed as previously described. Briefly, measurements of radiolabeled drug uptake were made over 1 h, unless otherwise specified. […] Where specified, one or more unlabeled drugs were also present at the indicated concentrations. […] The uptake assays were terminated by removing the oocytes from the reaction medium and washing them three times with 2 mL of ice-cold ND96 buffer. Each oocyte was transferred to a separate scintillation vial and lysed by the addition of 200 μL of a 5% SDS solution. The radioactivity in the sample was measured using a liquid scintillation analyser Tri-Carb 4910 TR (PerkinElmer). Water-injected oocytes were analyzed in parallel as a negative control. The buffer from each condition was measured in duplicate in parallel to each experiment to transform counts per minute into pmol of drug. Drug uptake attributable to PfCRT was determined by subtracting the background uptake from water-injected oocytes from that of PfCRT-expressing oocytes. In all cases, at least three independent experiments were performed on oocytes from different frogs, and for each condition in an experiment, measurements were made from 10 oocytes per treatment.
The following equations were adopted from Segel (1993), and the reader is referred to that text for the assumptions made in the author’s approach in the derivation of each equation [31]. The concentration of substrate is denoted as [S1] and the concentration of the inhibiting substrate is denoted as [S2]. KS1 and KS2 are the dissociation constants for the respective substrate-protein complexes.
Analyses of the kinetic data were performed using SigmaPlot version 13.0 and Python. The drug competition models were globally fit to the kinetic data using the least-squares method and ranked according to their corrected Akaike information criterion difference (ΔAICC) and their Akaike weight, using Python. The two top-ranked models were compared using an F-test.
This factor reflects how much the affinity of the transporter for one drug changes when the other drug is already bound in the protein cavity. In the former model, α > 0 and α ≠ 1. In the latter model, it could be thought of as if α = 1. Because of this, discriminating between the two models also means determining the value of α. In Mixed-type (Partial) inhibition, the apparent maximal velocity (Vmax,app) is given by Eq 22, Vmax,app=Vmax(1+β[S2]/αKS2)/(1+[S2]/αKS2) (Eq 22)
Vmax,app is the maximal rate of substrate transport at a certain inhibitor concentration. The half-maximal inhibitory concentration is given by the term in the denominator different from [S2], which in this case is αKS2. This means that by plotting Vmax,app as a function of [S2], the value of αKS2 can be derived after fitting the curve to Eq 23.
The half-maximal inhibitory concentration derived from this hyperbolic equation is equal to KS2. By plotting Vmax,app/KM,app as a function of [S2], one can derive KS2 after fitting the curve to Eq 25. The value of α can then be calculated dividing αKS2 by KS2.

CCN(CC)CCCC(C)Nc1ccnc2cc(Cl)ccc12 (stereo not drawn) [CQ, chloroquine]
PfCRTDd2-mediated CQ transport 10 µM CQ (0 µM PPQ): 0.87 pmol oocyte-1 h-1 and 1.33 pmol oocyte-1 h-1 and 1.00 pmol oocyte-1 h-1 and 0.95 pmol oocyte-1 h-1
PfCRTDd2-mediated CQ transport 10 µM CQ (50 µM PPQ): 1.41 pmol oocyte-1 h-1 and 1.10 pmol oocyte-1 h-1 and 0.61 pmol oocyte-1 h-1
PfCRTDd2-mediated CQ transport 10 µM CQ (125 µM PPQ): 0.68 pmol oocyte-1 h-1 and 1.41 pmol oocyte-1 h-1 and 1.40 pmol oocyte-1 h-1
PfCRTDd2-mediated CQ transport 10 µM CQ (200 µM PPQ): 0.89 pmol oocyte-1 h-1 and 0.30 pmol oocyte-1 h-1 and 1.02 pmol oocyte-1 h-1
PfCRTDd2-mediated CQ transport 10 µM CQ (350 µM PPQ): 1.16 pmol oocyte-1 h-1 and 0.24 pmol oocyte-1 h-1 and 0.95 pmol oocyte-1 h-1
PfCRTDd2-mediated CQ transport 10 µM CQ (500 µM PPQ): 0.43 pmol oocyte-1 h-1 and 1.04 pmol oocyte-1 h-1 and 0.36 pmol oocyte-1 h-1
PfCRTDd2-mediated CQ transport 50 µM CQ (0 µM PPQ): 3.90 pmol oocyte-1 h-1 and 4.91 pmol oocyte-1 h-1 and 4.76 pmol oocyte-1 h-1 and 7.49 pmol oocyte-1 h-1 and 10.46 pmol oocyte-1 h-1 and 5.04 pmol oocyte-1 h-1 and 3.98 pmol oocyte-1 h-1
PfCRTDd2-mediated CQ transport 50 µM CQ (50 µM PPQ): 6.48 pmol oocyte-1 h-1 and 5.07 pmol oocyte-1 h-1 and 3.08 pmol oocyte-1 h-1 and 4.12 pmol oocyte-1 h-1
PfCRTDd2-mediated CQ transport 50 µM CQ (125 µM PPQ): 4.96 pmol oocyte-1 h-1 and 2.54 pmol oocyte-1 h-1 and 3.07 pmol oocyte-1 h-1
PfCRTDd2-mediated CQ transport 50 µM CQ (200 µM PPQ): 3.46 pmol oocyte-1 h-1 and 2.63 pmol oocyte-1 h-1 and 3.11 pmol oocyte-1 h-1
PfCRTDd2-mediated CQ transport 50 µM CQ (350 µM PPQ): 2.38 pmol oocyte-1 h-1 and 2.66 pmol oocyte-1 h-1 and 3.48 pmol oocyte-1 h-1
PfCRTDd2-mediated CQ transport 50 µM CQ (500 µM PPQ): 2.32 pmol oocyte-1 h-1 and 2.15 pmol oocyte-1 h-1 and 3.29 pmol oocyte-1 h-1
PfCRTDd2-mediated CQ transport 100 µM CQ (0 µM PPQ): 8.35 pmol oocyte-1 h-1 and 7.99 pmol oocyte-1 h-1 and 8.53 pmol oocyte-1 h-1
PfCRTDd2-mediated CQ transport 100 µM CQ (50 µM PPQ): 9.49 pmol oocyte-1 h-1 and 7.68 pmol oocyte-1 h-1 and 5.55 pmol oocyte-1 h-1
PfCRTDd2-mediated CQ transport 100 µM CQ (125 µM PPQ): 5.95 pmol oocyte-1 h-1 and 8.32 pmol oocyte-1 h-1 and 6.55 pmol oocyte-1 h-1
PfCRTDd2-mediated CQ transport 100 µM CQ (200 µM PPQ): 5.59 pmol oocyte-1 h-1 and 6.01 pmol oocyte-1 h-1 and 5.66 pmol oocyte-1 h-1
PfCRTDd2-mediated CQ transport 100 µM CQ (350 µM PPQ): 5.36 pmol oocyte-1 h-1 and 3.63 pmol oocyte-1 h-1 and 6.93 pmol oocyte-1 h-1
PfCRTDd2-mediated CQ transport 100 µM CQ (500 µM PPQ): 4.92 pmol oocyte-1 h-1 and 5.26 pmol oocyte-1 h-1 and 4.17 pmol oocyte-1 h-1
PfCRTDd2-mediated CQ transport 200 µM CQ (0 µM PPQ): 17.86 pmol oocyte-1 h-1 and 12.77 pmol oocyte-1 h-1 and 15.13 pmol oocyte-1 h-1
PfCRTDd2-mediated CQ transport 200 µM CQ (50 µM PPQ): 13.29 pmol oocyte-1 h-1 and 13.73 pmol oocyte-1 h-1 and 11.63 pmol oocyte-1 h-1
PfCRTDd2-mediated CQ transport 200 µM CQ (125 µM PPQ): 10.25 pmol oocyte-1 h-1 and 14.35 pmol oocyte-1 h-1 and 10.52 pmol oocyte-1 h-1
PfCRTDd2-mediated CQ transport 200 µM CQ (200 µM PPQ): 10.68 pmol oocyte-1 h-1 and 10.09 pmol oocyte-1 h-1 and 9.74 pmol oocyte-1 h-1
PfCRTDd2-mediated CQ transport 200 µM CQ (350 µM PPQ): 11.39 pmol oocyte-1 h-1 and 6.27 pmol oocyte-1 h-1 and 10.49 pmol oocyte-1 h-1
PfCRTDd2-mediated CQ transport 200 µM CQ (500 µM PPQ): 7.85 pmol oocyte-1 h-1 and 9.03 pmol oocyte-1 h-1 and 9.31 pmol oocyte-1 h-1
PfCRTDd2-mediated CQ transport 300 µM CQ (0 µM PPQ): 20.89 pmol oocyte-1 h-1 and 20.25 pmol oocyte-1 h-1 and 8.92 pmol oocyte-1 h-1 and 15.94 pmol oocyte-1 h-1 and 19.02 pmol oocyte-1 h-1
PfCRTDd2-mediated CQ transport 300 µM CQ (50 µM PPQ): 15.04 pmol oocyte-1 h-1 and 14.02 pmol oocyte-1 h-1 and 15.34 pmol oocyte-1 h-1
PfCRTDd2-mediated CQ transport 300 µM CQ (125 µM PPQ): 15.92 pmol oocyte-1 h-1 and 14.01 pmol oocyte-1 h-1 and 11.66 pmol oocyte-1 h-1
PfCRTDd2-mediated CQ transport 300 µM CQ (200 µM PPQ): 11.11 pmol oocyte-1 h-1 and 12.97 pmol oocyte-1 h-1 and 12.36 pmol oocyte-1 h-1
PfCRTDd2-mediated CQ transport 300 µM CQ (350 µM PPQ): 11.84 pmol oocyte-1 h-1 and 11.95 pmol oocyte-1 h-1 and 8.89 pmol oocyte-1 h-1
PfCRTDd2-mediated CQ transport 300 µM CQ (500 µM PPQ): 11.31 pmol oocyte-1 h-1 and 9.89 pmol oocyte-1 h-1 and 9.29 pmol oocyte-1 h-1
PfCRTDd2-mediated CQ transport 400 µM CQ (0 µM PPQ): 20.79 pmol oocyte-1 h-1 and 22.58 pmol oocyte-1 h-1 and 19.58 pmol oocyte-1 h-1 and 16.43 pmol oocyte-1 h-1
PfCRTDd2-mediated CQ transport 400 µM CQ (50 µM PPQ): 18.68 pmol oocyte-1 h-1 and 19.12 pmol oocyte-1 h-1 and 16.44 pmol oocyte-1 h-1
PfCRTDd2-mediated CQ transport 400 µM CQ (125 µM PPQ): 13.83 pmol oocyte-1 h-1 and 18.03 pmol oocyte-1 h-1 and 15.59 pmol oocyte-1 h-1
PfCRTDd2-mediated CQ transport 400 µM CQ (200 µM PPQ): 14.22 pmol oocyte-1 h-1 and 13.47 pmol oocyte-1 h-1 and 13.35 pmol oocyte-1 h-1
PfCRTDd2-mediated CQ transport 400 µM CQ (350 µM PPQ): 14.38 pmol oocyte-1 h-1 and 9.22 pmol oocyte-1 h-1
PfCRTDd2-mediated CQ transport 400 µM CQ (500 µM PPQ): 12.77 pmol oocyte-1 h-1 and 10.16 pmol oocyte-1 h-1 and 8.34 pmol oocyte-1 h-1

— PMC10281575, “PfCRT mutations conferring piperaquine resistance in falciparum malaria shape the kinetics of quinoline drug binding and transport” (PLOS Pathogens, 2023)
